Patent publication US20080139558A1, “QUINOLONES USEFUL AS INDUCIBLE NITRIC OXIDE SYNTHASE INHIBITORS” (KALYPSYS, INC., priority 2006, published 2008)
pEC50: −log10 of the molar value.

Target: T1, human iNOS (Homo sapiens, UniProt P35228)
T1 construct: expressed in transfected cells; host or cells: HEK293
Experiment: DAN assay of nitric oxide production (hiNOS)
Assay type: cell-based
Details: enzyme expressed in HEK293 cells transiently transfected with human iNOS
In short: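 Human iNOS transiently expressed in HEK293 cells; NO production quantified as nitrite via 2,3-diaminonaphthalene reaction forming fluorescent naphthotriazole.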

T1 sequence (P35228 whole entry): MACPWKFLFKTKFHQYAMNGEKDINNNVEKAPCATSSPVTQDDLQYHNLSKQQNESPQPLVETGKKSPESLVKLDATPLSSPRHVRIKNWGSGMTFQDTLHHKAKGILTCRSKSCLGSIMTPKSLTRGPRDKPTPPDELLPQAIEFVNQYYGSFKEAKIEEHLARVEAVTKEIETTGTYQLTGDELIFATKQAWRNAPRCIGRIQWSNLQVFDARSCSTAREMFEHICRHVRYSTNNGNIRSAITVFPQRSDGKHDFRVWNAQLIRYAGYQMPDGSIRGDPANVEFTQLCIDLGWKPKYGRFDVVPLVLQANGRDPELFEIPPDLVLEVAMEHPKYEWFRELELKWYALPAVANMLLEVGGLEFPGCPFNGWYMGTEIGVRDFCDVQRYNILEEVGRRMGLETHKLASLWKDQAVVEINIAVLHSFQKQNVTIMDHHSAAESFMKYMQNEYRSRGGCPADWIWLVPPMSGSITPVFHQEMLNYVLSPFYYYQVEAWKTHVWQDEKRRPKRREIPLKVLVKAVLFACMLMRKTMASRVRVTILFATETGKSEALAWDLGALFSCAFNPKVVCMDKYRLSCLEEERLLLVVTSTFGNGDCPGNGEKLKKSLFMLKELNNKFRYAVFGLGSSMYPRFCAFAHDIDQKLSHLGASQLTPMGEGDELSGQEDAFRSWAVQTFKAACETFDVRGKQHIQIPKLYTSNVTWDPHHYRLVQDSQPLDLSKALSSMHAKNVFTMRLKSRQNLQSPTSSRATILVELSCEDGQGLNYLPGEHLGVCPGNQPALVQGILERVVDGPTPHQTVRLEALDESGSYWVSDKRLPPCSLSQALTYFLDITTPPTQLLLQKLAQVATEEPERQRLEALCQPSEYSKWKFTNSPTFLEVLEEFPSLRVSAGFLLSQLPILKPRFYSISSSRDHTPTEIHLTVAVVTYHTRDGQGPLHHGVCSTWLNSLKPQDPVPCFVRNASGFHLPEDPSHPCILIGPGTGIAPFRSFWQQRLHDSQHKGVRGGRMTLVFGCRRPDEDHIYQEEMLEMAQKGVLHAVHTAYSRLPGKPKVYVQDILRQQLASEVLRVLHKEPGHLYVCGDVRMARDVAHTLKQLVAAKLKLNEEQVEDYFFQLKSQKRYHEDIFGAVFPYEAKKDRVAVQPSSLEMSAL

pEC50 | Compound
< 5.30 | Cc1ncsc1C(=O)N(Cc1cc(=O)[nH]c2c(F)c(F)ccc12)c1ccc(N2CCCCC2)cc1 [Example 170, N-((7,8-Difluoro-2-oxo-1,2-dihydroquinolin-4-yl)methyl)-4-methyl-N-(4-(piperidin-1-yl)phenyl)thiazole-5-carboxamide]
< 5.30 | Cc1oncc1C(=O)N(Cc1cc2cccc(F)c2[nH]c1=O)c1cccc(Cl)c1 [Example 173, N-(3-Chlorophenyl)-N-((8-fluoro-2-oxo-1,2-dihydroquinolin-3-yl)methyl)-5-methylisoxazole-4-carboxamide]
< 5.30 | Cc1ncsc1C(=O)N(Cc1cc2cccc(F)c2[nH]c1=O)c1ccc(N2CCCCC2)cc1 [Example 174, N-((8-Fluoro-2-oxo-1,2-dihydroquinolin-3-yl)methyl)-4-methyl-N-(piperidin-1-yl)phenylthiazole-5-carboxamide]
≥ 5.30 | Cc1ncsc1C(=O)N(Cc1cc(=O)[nH]c2c(F)c(F)ccc12)c1ccccc1 [Example 175, N-Phenyl-N-((7,8-fluoro-2-oxo-1,2-dihydroquinolin-4-yl)methyl)-4-methylthiazole-5-carboxamide]
≥ 5.30 | Cc1ccc(N(Cc2cc(=O)[nH]c3c(F)c(F)ccc23)C(=O)c2scnc2C)cc1Cl [Example 177, N-(3-Chloro4-methylphenyl)-N-((7,8-fluoro-2-oxo-1,2-dihydroquinolin-4-yl)methyl)-4-methylthiazole-5-carboxamide]
≥ 5.30 | Cc1ncsc1C(=O)N(Cc1cc(=O)[nH]c2c(F)c(F)ccc12)c1ccc(F)cc1 [Example 183, N-(4-Fluorolphenyl)-N-((7,8-fluoro-2-oxo-1,2-dihydroquinolin-4-yl)methyl)-4-methylthiazole-5-carboxamide]
≥ 5.30 | Cc1nc(C)c(S(=O)(=O)N(Cc2cc(=O)[nH]c3c(F)c(F)ccc23)c2cccc(Cl)c2)s1 [Example 189, N-(3-Chlorophenyl)-N-((7,8-difluoro-2-oxo-1,2-dihydroquinolin-4-yl)methyl)-2,4-dimethylthiazole-5-sulfonamide]
≥ 5.30 | CSc1nc2ccccc2n1Cc1cc(=O)[nH]c2c(F)c(F)ccc12 [Example 192, 7,8-Difluoro-4-((2-(methylthio)-1H-benzo[d]imidazol-1-yl)methyl)quinolin-2(1H)-one]
< 5.30 | O=c1cc(Cn2c(-c3ccc(F)cc3)nc3ccccc32)c2ccc(F)c(F)c2[nH]1 [Example 197, 7,8-Difluoro-4-((2-(4-fluorophenyl)-1H-benzo[d]imidazol-1-yl)methyl)quinolin-2(1H)-one]
< 5.30 | O=c1cc(Cn2c(N3CCOCC3)nc3ccccc32)c2ccc(F)c(F)c2[nH]1 [Example 200, 7,8-Difluoro-4-((2-morpholino-1H-benzo[d]imidazol-1-yl)methyl)quinolin-2(1H)-one]
< 5.30 | CN(C)c1nc2ccccc2n1Cc1cc(=O)[nH]c2c(F)c(F)ccc12 [Example 201, 4-((2-(Dimethylamino)-1H-benzo[d]imidazol-1-yl)methyl)-7,8-difluoroquinolin-2(1H)-one]
< 5.30 | O=c1cc(Cn2c(Cl)nc3ccccc32)c2ccc(F)c(F)c2[nH]1 [Example 203, 4-((2-Chloro-1H-benzo[d]imidazol-1-yl)methyl)-7,8-difluoroquinolin-2(1H)-one]
< 5.30 | O=c1cc(Cn2c(C3CCCCC3)nc3ccccc32)c2ccc(F)c(F)c2[nH]1 [Example 204, 4-((2-Cyclohexyl-1H-benzo[d]imidazol-1-yl)methyl)-7,8-difluoroquinolin-2(1H)-one]

Further lines, the molecule ahead of its results:

Compound | pEC50
Cn1nnc(C(=O)N(Cc2cc(=O)[nH]c3c(F)c(F)ccc23)c2cccc(Cl)c2)n1 [Example 169] | ≥ 5.30
Cc1ncsc1C(=O)N(Cc1cc2cccc(F)c2[nH]c1=O)c1cccc(Cl)c1 [Example 171, N-(3-Chlorophenyl)-N-((8-fluoro-2-oxy-1,2-dihydroquinolin-3-yl)methyl)-4-methylthiazole-5-carboxamide] | < 5.30
Cc1ccncc1C(=O)N(Cc1cc2cccc(F)c2[nH]c1=O)c1cccc(Cl)c1 [Example 172, N-(3-Chlorophenyl)-N-((8-fluoro-2-oxo-1,2-dihydroquinolin-3-yl)methyl)-4-methylnicotinamide] | < 5.30
COc1ccc(N(Cc2cc(=O)[nH]c3c(F)c(F)ccc23)C(=O)c2scnc2C)cc1Cl [Example 176, N-(3-Chloro4-methoxylphenyl)-N-((7,8-fluoro-2-oxo-1,2-dihydroquinolin-4-yl)methyl)-4-methylthiazole-5-carboxamide] | ≥ 5.30
Cc1ncsc1C(=O)N(Cc1cc(=O)[nH]c2c(F)c(F)ccc12)c1cc(F)cc(F)c1 [Example 178, N-(3,5-Difluorophenyl)-N-((7,8-fluoro-2-oxo-1,2-dihydroquinolin-4-yl)methyl)-4-methylthiazole-5-carboxamide] | ≥ 5.30
Cc1ncsc1C(=O)N(Cc1cc(=O)[nH]c2c(F)c(F)ccc12)c1cccc2ccccc12 [Example 179, N-(1-Naphthalene)-N-((7,8-fluoro-2-oxo-1,2-dihydroquinolin-4-yl)methyl)-4-methylthiazole-5-carboxamide] | ≥ 5.30
COc1cccc(N(Cc2cc(=O)[nH]c3c(F)c(F)ccc23)C(=O)c2scnc2C)c1 [Example 180, N-(3-Methoxylphenyl)-N-((7,8-fluoro-2-oxo-1,2-dihydroquinolin-4-yl)methyl)-4-methylthiazole-5-carboxamide] | ≥ 5.30
Cc1ncsc1C(=O)N(Cc1cc(=O)[nH]c2c(F)c(F)ccc12)c1ccc(F)c(Cl)c1 [Example 181, N-(3-Chloro-4-fluorophenyl)-N-((7,8-fluoro-2-oxo-1,2-dihydroquinolin-4-yl)methyl)-4-methylthiazole-5-carboxamide] | ≥ 5.30
Cc1ncsc1C(=O)N(Cc1cc(=O)[nH]c2c(F)c(F)ccc12)c1ccc(C#N)c(Cl)c1 [Example 182, N-(3-Chloro-4-cyanophenyl)-N-((7,8-fluoro-2-oxo-1,2-dihydroquinolin-4-yl)methyl)-4-methylthiazole-5-carboxamide] | ≥ 5.30
Cc1ncsc1C(=O)N(Cc1cc(=O)[nH]c2c(F)c(F)ccc12)c1cccc(Cl)c1C [Example 184, N-(3-Chloro-2-methylphenyl)-N-((7,8-difluoro-2-oxo-1,2-dihydroquinolin-4-yl)methyl)-4-methylthiazole-5-carboxamide] | ≥ 5.30
Cc1ncsc1C(=O)N(Cc1cc(=O)[nH]c2c(F)c(F)ccc12)C(C)C [Example 185] | < 5.30
Cc1ncsc1C(=O)N(Cc1cc(=O)[nH]c2c(F)c(F)ccc12)c1cccc(C#N)c1 [Example 186, N-(3-Cyanophenyl)-N-((7,8-difluoro-2-oxo-1,2-dihydroquinolin-4-yl)methyl)-4-methylthiazole-5-carboxamide] | ≥ 5.30
Cc1ncsc1C(=O)N(Cc1cc(=O)[nH]c2c(F)cccc12)c1cccc(Cl)c1F [Example 187, N-(3-Chloro-2-fluorophenyl)-N-((8-fluoro-2-oxo-1,2-dihydroquinolin-4-yl)methyl)-4-methylthiazole-5-carboxamide] | ≥ 5.30
CC(C)S(=O)(=O)N(Cc1cc(=O)[nH]c2c(F)c(F)ccc12)c1cccc(Cl)c1 [Example 188, N-(3-Chlorophenyl)-N-((7,8-difluoro-2-oxo-1,2-dihydroquinolin-4-yl)methyl)propane-2-sulfonamide] | ≥ 5.30
Cc1nc2ccccc2n1Cc1cc(=O)[nH]c2c(F)c(F)ccc12 [Example 190, 7,8-Difluoro-4-((2-methyl-1H-benzo[d]imidazol-1-yl)methyl)quinolin-2(1H)-one] | < 5.30
O=c1cc(Cn2c(-c3cncs3)nc3ccccc32)c2ccc(F)c(F)c2[nH]1 [Example 191, 7,8-Difluoro-4-((2-(thiazol-5-yl)-1H-benzo[d]imidazol-1-yl)methyl)quinolin-2(1H)-one] | ≥ 5.30
O=c1cc(Cn2c(-c3cscn3)nc3ccccc32)c2ccc(F)c(F)c2[nH]1 [Example 193, 7,8-Difluoro-4-((2-(thiazol-4-yl)-1H-benzo[d]imidazol-1-yl)methyl)quinolin-2(1H)-one] | < 5.30
O=c1cc(Cn2c(CN3CCOCC3)nc3ccccc32)c2ccc(F)c(F)c2[nH]1 [Example 194, 7,8-Difluoro-4-((2-(morpholinomethyl)-1H-benzo[d]imidazol-1-yl)methyl)quinolin-2(1H)-one] | < 5.30
CC(C)Cc1nc2ccccc2n1Cc1cc(=O)[nH]c2c(F)c(F)ccc12 [Example 195, 7,8-Difluoro-4-((2-isobutyl-1H-benzo[d]imidazol-1-yl)methyl)quinolin-2(1H)-one] | ≥ 5.30
O=c1cc(Cn2c(-c3cccc(F)c3)nc3ccccc32)c2ccc(F)c(F)c2[nH]1 [Example 196, 7,8-Difluoro-4-((2-(3-fluorophenyl)-1H-benzo[d]imidazol-1-yl)methyl)quinolin-2(1H)-one] | ≥ 5.30
CN(C)Cc1nc2ccccc2n1Cc1cc(=O)[nH]c2c(F)c(F)ccc12 [Example 198, 4-((2-((Dimethylamino)methyl)-1H-benzo[d]imidazol-1-yl)methyl)-7,8-difluoroquinolin-2(1H)-one] | < 5.30
Cc1cnccc1-c1nc2ccccc2n1Cc1cc(=O)[nH]c2c(F)c(F)ccc12 [Example 199, 7,8-Difluoro-4-((2-(3-methylpyridin-4-yl)-1H-benzo[d]imidazol-1-yl)methyl)quinolin-2(1H)-one] | ≥ 5.30
CC(C)(C)c1nc2ccccc2n1Cc1cc(=O)[nH]c2c(F)c(F)ccc12 [Example 202, 4-((2-tert-Butyl-1H-benzo[d]imidazol-1-yl)methyl)-7,8-difluoroquinolin-2(1H)-one] | < 5.30
CC(C)(C)OC(=O)N1CCC(c2nc3ccccc3n2Cc2cc(=O)[nH]c3c(F)c(F)ccc23)CC1 [Example 205, tert-Butyl 4-(1-((7,8-difluoro-2-oxo-1,2-dihydroquinolin-4-yl)methyl)-1H-benzo[d]imidazol-2-yl)piperidine-1-carboxylate] | < 5.30
O=c1cc(Cn2c(C3CCC3)nc3ccccc32)c2ccc(F)c(F)c2[nH]1 [Example 207, 4-((2-Cyclobutyl-1H-benzo[d]imidazol-1-yl)methyl)-7,8-difluoroquinolin-2(1H)-one] | ≥ 5.30
